Reference: patent US8883827B2, “Azole derivatives as WTN pathway inhibitors” (Oslo University Hospital HF, priority 2009, dated 2014)
Where two headings read alike, the source gives them in different places.

Columns and labels:
CHK1(h) = biological target: T1, CHK1(h) (Homo sapiens, UniProt O14757); experiment: Kinase screen; type: biochemical; conditions: 0.1% DMSO control = 100%
T1 construct: purchased Millipore (KinaseProfiler service)

canonical Wnt signaling = experiment: ST-Luc (SuperTOPFlash) Luciferase assay in HEK293 cells, 30% Wnt3a-CM; type: cell-based; conditions: Homo sapiens, 24 h
In short: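 HEK293 cells were transiently co-transfected with SuperTOPFlash firefly luciferase and pRL-TK Renilla reporters, then treated 24 h with 10 μM compound in 30% Wnt3a-conditioned medium. Dual luciferase activity was read, and percent activity was expressed relative to DMSO control.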

PAK2(h) = biological target: T2, PAK2(h) (Homo sapiens, UniProt Q13177); experiment: Kinase screen; type: biochemical; conditions: 0.1% DMSO control = 100%
T2 construct: purchased Millipore (KinaseProfiler service)
T2 sequence (Q13177 whole entry): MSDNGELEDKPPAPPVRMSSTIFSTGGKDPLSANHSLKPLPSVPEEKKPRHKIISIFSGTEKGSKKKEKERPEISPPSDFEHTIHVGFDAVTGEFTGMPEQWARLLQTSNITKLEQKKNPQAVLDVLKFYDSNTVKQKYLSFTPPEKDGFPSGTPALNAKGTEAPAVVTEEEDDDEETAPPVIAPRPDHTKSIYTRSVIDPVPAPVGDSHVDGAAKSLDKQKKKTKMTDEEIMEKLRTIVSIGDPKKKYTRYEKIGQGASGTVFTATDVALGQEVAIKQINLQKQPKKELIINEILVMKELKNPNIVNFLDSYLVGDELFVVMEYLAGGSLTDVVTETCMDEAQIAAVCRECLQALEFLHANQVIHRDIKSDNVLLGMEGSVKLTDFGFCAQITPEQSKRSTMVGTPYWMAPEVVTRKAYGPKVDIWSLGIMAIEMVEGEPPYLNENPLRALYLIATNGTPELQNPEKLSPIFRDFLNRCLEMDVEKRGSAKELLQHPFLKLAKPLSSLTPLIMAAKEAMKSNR

ASK1(h) = biological target: T3, ASK1(h) (Homo sapiens, UniProt Q99683); experiment: Kinase screen; type: biochemical; conditions: 0.1% DMSO control = 100%
T3 construct: purchased Millipore (KinaseProfiler service)

CaMKI(h) = biological target: T4, CaMKI(h) (Homo sapiens, UniProt Q14012); experiment: Kinase screen; type: biochemical; conditions: 0.1% DMSO control = 100%
T4 construct: purchased Millipore (KinaseProfiler service)

PDGFRβ(h) = biological target: T5, PDGFRβ(h) (Homo sapiens, UniProt P09619); experiment: Kinase screen; type: biochemical; conditions: 0.1% DMSO control = 100%
T5 construct: purchased Millipore (KinaseProfiler service)

VHR(h) = biological target: T6, VHR(h) (Homo sapiens, UniProt P51452); experiment: Phosphatase screen; type: biochemical; conditions: 0.1% DMSO control = 100%
T6 construct: purchased Millipore (KinaseProfiler service)
T6 sequence (P51452 whole entry): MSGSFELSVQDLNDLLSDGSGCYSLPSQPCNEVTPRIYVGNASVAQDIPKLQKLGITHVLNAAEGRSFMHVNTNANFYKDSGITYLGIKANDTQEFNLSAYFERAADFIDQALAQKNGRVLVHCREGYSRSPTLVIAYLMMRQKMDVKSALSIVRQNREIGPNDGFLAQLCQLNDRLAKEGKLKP

MEK1(h) = biological target: T7, MEK1(h) (Homo sapiens, UniProt Q02750); experiment: Kinase screen; type: biochemical; conditions: 0.1% DMSO control = 100%
T7 construct: purchased Millipore (KinaseProfiler service)

[1] = test system: HeLa (cervical adenocarcinoma) cells; experiment: MTS cell growth assay (Example 27); type: cell-based; conditions: 72 h
Procedure: (§1) 3000 cells were seeded on 96 well plates in quadruplicates for each sample. The following day, cell culture medium was mixed with compound No. 1 in various concentrations or with 0.5% DMSO vehicle (control) and added to the wells.
(§2) Eight wells of seeded control cells, defining incubation time 0 (t0), were incubated with 20 μl substrate in 100 μl phenol-free D-MEM (Invitrogen) for 3 hours, as described in the CellTiter 96® AQueous Non-Radioactive Cell Proliferation Assay (MTS) protocol (Promega). The A490 value was recorded.
(§3) Samples were measured after 72 hours. The following formula was used to determine the single well relative A490 sample values: ((Sample A490−Average A490 to)×100)/(Average A490 0.5% DMSO control−Average A490 t0).

MeWo (melanoma) cells = experiment: MTS cell growth assay (Example 27); type: cell-based; conditions: 72 h
Procedure: as §1, §2, §3

[2] = test system: THLE2 (hepatocytes) cells; experiment: MTS cell growth assay (Example 27); type: cell-based; conditions: 72 h
Procedure: as §1, §2, §3

PKCα(h) = biological target: T8, PKCα(h) (Homo sapiens, UniProt P17252); experiment: Kinase screen; type: biochemical; conditions: 0.1% DMSO control = 100%
T8 construct: purchased Millipore (KinaseProfiler service)

HePTP(h) = biological target: T9, HePTP(h) (Homo sapiens, UniProt P35236); experiment: Phosphatase screen; type: biochemical; conditions: 0.1% DMSO control = 100%
T9 construct: purchased Millipore (KinaseProfiler service)
T9 sequence (P35236 whole entry): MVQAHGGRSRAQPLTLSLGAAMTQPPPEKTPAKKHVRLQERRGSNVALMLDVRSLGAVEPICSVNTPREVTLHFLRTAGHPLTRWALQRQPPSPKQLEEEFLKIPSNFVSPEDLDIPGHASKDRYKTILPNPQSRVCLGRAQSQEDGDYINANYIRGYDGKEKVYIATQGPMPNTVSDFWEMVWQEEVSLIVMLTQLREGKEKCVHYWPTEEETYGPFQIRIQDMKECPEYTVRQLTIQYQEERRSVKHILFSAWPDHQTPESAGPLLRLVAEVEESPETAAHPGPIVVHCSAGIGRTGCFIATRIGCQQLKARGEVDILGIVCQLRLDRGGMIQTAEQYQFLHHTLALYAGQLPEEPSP

DRAK1(h) = biological target: T10, DRAK1(h) (Homo sapiens, UniProt Q9UEE5); experiment: Kinase screen; type: biochemical; conditions: 0.1% DMSO control = 100%
T10 construct: purchased Millipore (KinaseProfiler service)

GSK3β(h) = biological target: T11, GSK3β(h) (Homo sapiens, UniProt P49841); experiment: Kinase screen; type: biochemical; conditions: 0.1% DMSO control = 100%
T11 construct: purchased Millipore (KinaseProfiler service)

cSRC(h) = biological target: T12, cSRC(h) (Homo sapiens, UniProt P12931); experiment: Kinase screen; type: biochemical; conditions: 0.1% DMSO control = 100%
T12 construct: purchased Millipore (KinaseProfiler service)
T12 sequence (P12931 whole entry): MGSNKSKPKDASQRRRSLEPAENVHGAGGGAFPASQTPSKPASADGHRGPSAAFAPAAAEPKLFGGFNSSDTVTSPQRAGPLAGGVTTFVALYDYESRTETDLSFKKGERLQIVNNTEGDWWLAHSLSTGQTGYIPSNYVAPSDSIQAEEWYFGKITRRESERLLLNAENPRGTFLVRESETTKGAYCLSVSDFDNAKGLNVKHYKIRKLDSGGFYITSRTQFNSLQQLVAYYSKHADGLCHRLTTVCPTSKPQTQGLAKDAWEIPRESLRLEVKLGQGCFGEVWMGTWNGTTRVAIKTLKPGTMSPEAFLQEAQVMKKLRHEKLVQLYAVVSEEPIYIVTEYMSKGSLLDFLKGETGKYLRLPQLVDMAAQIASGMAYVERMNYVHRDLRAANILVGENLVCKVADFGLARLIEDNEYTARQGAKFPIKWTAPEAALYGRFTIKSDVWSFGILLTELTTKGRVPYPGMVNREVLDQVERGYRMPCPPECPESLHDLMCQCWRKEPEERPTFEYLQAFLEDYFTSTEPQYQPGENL

p70S6K(h) = biological target: T13, p70S6K(h) (Homo sapiens, UniProt P23443); experiment: Kinase screen; type: biochemical; conditions: 0.1% DMSO control = 100%
T13 construct: purchased Millipore (KinaseProfiler service)
T13 sequence (P23443 whole entry): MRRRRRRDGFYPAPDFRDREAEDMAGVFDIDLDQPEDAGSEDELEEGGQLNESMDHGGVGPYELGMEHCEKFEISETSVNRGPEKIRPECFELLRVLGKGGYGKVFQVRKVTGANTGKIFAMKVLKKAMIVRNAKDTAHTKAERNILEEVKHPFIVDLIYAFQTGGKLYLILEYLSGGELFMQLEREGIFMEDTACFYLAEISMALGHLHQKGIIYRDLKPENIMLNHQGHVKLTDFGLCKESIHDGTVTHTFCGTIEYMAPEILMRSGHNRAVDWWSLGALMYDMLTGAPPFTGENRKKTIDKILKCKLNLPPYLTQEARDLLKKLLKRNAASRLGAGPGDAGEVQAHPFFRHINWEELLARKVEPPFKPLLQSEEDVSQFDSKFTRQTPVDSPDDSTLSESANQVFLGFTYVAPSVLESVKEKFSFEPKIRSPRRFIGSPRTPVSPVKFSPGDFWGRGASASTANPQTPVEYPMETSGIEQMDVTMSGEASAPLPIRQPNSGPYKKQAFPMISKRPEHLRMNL

LMPTP-B(h) = biological target: T14, LMPTP-B(h) (Homo sapiens, UniProt P24666); experiment: Phosphatase screen; type: biochemical; conditions: 0.1% DMSO control = 100%
T14 construct: purchased Millipore (KinaseProfiler service)
T14 sequence (P24666 1-158 isoform P24666-2): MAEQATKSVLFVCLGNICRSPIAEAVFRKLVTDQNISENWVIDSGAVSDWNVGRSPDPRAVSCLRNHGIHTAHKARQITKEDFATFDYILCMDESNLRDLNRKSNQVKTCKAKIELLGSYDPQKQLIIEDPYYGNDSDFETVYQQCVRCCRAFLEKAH

IKKα(h) = biological target: T15, IKKα(h) (Homo sapiens, UniProt O15111); experiment: Kinase screen; type: biochemical; conditions: 0.1% DMSO control = 100%
T15 construct: purchased Millipore (KinaseProfiler service)
T15 sequence (O15111 whole entry): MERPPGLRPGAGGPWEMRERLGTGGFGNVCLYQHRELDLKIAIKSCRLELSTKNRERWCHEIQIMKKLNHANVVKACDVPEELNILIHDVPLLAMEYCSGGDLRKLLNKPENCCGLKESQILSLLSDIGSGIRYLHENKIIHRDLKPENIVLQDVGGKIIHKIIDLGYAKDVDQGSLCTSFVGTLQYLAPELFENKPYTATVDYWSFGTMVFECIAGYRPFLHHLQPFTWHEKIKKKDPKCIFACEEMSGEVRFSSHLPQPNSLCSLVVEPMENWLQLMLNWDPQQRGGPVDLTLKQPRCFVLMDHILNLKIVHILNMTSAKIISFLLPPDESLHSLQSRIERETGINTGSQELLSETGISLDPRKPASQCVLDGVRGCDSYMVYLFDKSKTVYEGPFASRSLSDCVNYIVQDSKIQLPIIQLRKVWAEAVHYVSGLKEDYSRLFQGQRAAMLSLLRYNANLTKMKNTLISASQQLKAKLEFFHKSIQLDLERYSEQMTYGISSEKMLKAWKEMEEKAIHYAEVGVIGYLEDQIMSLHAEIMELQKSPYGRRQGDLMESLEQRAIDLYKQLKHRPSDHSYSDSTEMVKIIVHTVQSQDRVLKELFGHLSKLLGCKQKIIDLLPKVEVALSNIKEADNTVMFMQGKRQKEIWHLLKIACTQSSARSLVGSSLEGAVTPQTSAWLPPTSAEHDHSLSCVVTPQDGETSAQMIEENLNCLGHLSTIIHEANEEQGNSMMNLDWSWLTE

[3] = Compound concentration in plasma and tumors of xenograft mice; type: in vivo; conditions: C.B-Igh-1b/IcrTac-Prkdc scid (CB17/SCID), mouse, intraperitoneal, 24 h after last injection, day 29
Procedure: Daily injections (200 μl, i.p.) followed (two day injection intermissions after every fifth injection day) until experiment end (29 days). At the termination day, 24 hours after the last injection, blood was collected after cardiac puncture and the tumors were removed and weighed. The compound concentration in plasma and tumors was determined using an on-line and off-line Solid Phase Extraction-Capillary Liquid Chromatography (SPE-CapLC) instrumentation coupled to a Time of Flight (TOF) mass spectrometer, as previously described (Wilson, S. R. et al., J. Sep. Sci. 28: 1751-1758, 2005). A Zorbax SB C18 5 μm 150×0.3 mm column (Agilent, […], Calif., USA) was used for separation, and a Knauer K-2600 UV detector was used as a complimentary detector.

CDK1/cyclinB(h) = biological target: T16, CDK1/cyclinB(h) (Homo sapiens, UniProt P06493); experiment: Kinase screen; type: biochemical; conditions: 0.1% DMSO control = 100%
T16 construct: purchased Millipore (KinaseProfiler service)
T16 sequence (P06493 whole entry): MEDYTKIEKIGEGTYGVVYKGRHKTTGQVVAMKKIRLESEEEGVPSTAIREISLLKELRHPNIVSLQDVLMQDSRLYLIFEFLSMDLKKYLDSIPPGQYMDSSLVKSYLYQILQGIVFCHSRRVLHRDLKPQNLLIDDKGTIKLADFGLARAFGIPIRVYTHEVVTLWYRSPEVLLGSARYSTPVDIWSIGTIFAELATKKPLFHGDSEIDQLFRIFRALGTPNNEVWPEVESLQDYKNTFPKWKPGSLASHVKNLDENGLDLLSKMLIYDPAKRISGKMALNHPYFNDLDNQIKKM
T16 sequence (P14635 whole entry partner): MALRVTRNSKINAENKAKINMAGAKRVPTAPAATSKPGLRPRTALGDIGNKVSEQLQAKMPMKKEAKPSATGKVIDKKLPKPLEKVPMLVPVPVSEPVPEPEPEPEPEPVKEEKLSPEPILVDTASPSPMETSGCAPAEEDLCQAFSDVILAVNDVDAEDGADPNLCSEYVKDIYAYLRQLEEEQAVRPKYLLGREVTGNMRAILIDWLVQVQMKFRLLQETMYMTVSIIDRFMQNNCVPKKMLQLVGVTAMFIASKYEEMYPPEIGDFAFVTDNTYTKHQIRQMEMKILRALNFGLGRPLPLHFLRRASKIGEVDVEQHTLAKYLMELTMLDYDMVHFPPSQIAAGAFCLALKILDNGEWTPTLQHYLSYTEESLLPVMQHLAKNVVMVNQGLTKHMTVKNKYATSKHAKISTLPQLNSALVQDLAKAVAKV

T1 sequence (O14757 whole entry): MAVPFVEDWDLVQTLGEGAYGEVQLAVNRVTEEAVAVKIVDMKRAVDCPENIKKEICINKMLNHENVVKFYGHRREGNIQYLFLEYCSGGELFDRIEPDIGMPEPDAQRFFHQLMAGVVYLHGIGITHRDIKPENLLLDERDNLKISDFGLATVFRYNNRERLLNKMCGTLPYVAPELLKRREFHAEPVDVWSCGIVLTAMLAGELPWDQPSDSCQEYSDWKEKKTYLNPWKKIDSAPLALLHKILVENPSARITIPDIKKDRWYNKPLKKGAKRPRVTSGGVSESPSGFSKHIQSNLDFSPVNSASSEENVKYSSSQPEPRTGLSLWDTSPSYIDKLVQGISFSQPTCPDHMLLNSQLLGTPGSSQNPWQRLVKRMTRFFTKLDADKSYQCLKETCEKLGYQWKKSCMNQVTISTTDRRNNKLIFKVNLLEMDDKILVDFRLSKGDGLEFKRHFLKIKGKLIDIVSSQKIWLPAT

Q: For `COc1ccc(-n2c(SCc3nc(-c4ccc(C)cc4)no3)nnc2-c2ccncc2)cc1` [Compound 1], which activity at 10 µM (CHK1(h)) is on record?
A: 106%

Q: And the activity at 10 µM (canonical Wnt signaling; HEK293, 10 μM compound, 30% Wnt3a-CM, relative to DMSO control)?
A: 15.4%

Q: What about the IC50 (canonical Wnt signaling; HEK293, 30% Wnt3a-CM, 0.1-10 μM, read-out: IC50, reduction of canonical Wnt signaling by the ST-Luc assay) of the same molecule?
A: 1000 nM

Q: And the activity at 10 µM (PAK2(h))?
A: 99%

Q: What about the activity at 10 µM (ASK1(h)) of the same molecule?
A: 106%

Q: What about the activity at 10 µM (CaMKI(h)) of the same molecule?
A: 97%

Q: What about the activity at 10 µM (PDGFRβ(h)) of the same molecule?
A: 129%

Q: And the activity at 10 µM (VHR(h))?
A: 103%

Q: What about the activity at 10 µM (MEK1(h)) of the same molecule?
A: 108%

Q: What about the growth reduction [1] of the same molecule?
A: only a minor growth reduction

Q: What about the growth reduction (MeWo (melanoma) cells) of the same molecule?
A: only a minor growth reduction

Q: And the growth reduction [2]?
A: only a minor growth reduction

Q: What about the activity at 10 µM (PKCα(h)) of the same molecule?
A: 105%

Q: And the activity at 10 µM (HePTP(h))?
A: 106%

Q: And the activity at 10 µM (DRAK1(h))?
A: 116%

Q: And the activity at 10 µM (GSK3β(h))?
A: 90%

Q: What about the activity at 10 µM (cSRC(h)) of the same molecule?
A: 100%

Q: And the activity at 10 µM (p70S6K(h))?
A: 113%

Q: And the activity at 10 µM (LMPTP-B(h))?
A: 100%

Q: What about the activity at 10 µM (IKKα(h)) of the same molecule?
A: 109%

Q: And the concentration at 24 h after the last injection ([3]; plasma, 150 mg/kg, 150 mg/kg group, read-out: concentration in plasma)?
A: 1300 ng/mL

Q: And the concentration at 24 h after the last injection ([3]; plasma, 300 mg/kg, 300 mg/kg group, read-out: concentration in plasma)?
A: 1300 ng/mL

Q: What about the concentration at 24 h after the last injection ([3]; tumor, 150 mg/kg, 150 mg/kg cohort, read-out: concentration in tumors, mean) of the same molecule?
A: 11800 ng/g

Q: And the concentration at 24 h after the last injection ([3]; tumor, 150 mg/kg, 150 mg/kg cohort, read-out: concentration in tumors, range)?
A: 1900 to 32900 ng/g

Q: And the concentration at 24 h after the last injection ([3]; tumor, 300 mg/kg, 300 mg/kg cohort, read-out: concentration in tumors, mean)?
A: 2400 ng/g

Q: What about the concentration at 24 h after the last injection ([3]; tumor, 300 mg/kg, 300 mg/kg cohort, read-out: concentration in tumors, range) of the same molecule?
A: 900 to 4900 ng/g

Q: What about the activity at 10 µM (CDK1/cyclinB(h)) of the same molecule?
A: 101%
